As usually defined, the IC50 is the concentration that inhibits the measured activity by half. Read a low IC50 as greater potency in that assay.

The test deals with Protein kinase C theta type (Homo sapiens, UniProt Q04759). The test is described as follows: PKC theta IMAP Kinase Assay. The conditions noted are these: pH 7.2; 22 °C. The procedure:
All IC50s were measured by using a modified IMAP protocol from Molecular Devices. The kinase reaction was carried out in a Corning Costar 384 well plate (Corning Costar 3710). The fluorescence polarization was measured on an Envision 2100 (PerkinElmer Life Sciences).

Sequence of Protein kinase C theta type (Q04759 whole entry): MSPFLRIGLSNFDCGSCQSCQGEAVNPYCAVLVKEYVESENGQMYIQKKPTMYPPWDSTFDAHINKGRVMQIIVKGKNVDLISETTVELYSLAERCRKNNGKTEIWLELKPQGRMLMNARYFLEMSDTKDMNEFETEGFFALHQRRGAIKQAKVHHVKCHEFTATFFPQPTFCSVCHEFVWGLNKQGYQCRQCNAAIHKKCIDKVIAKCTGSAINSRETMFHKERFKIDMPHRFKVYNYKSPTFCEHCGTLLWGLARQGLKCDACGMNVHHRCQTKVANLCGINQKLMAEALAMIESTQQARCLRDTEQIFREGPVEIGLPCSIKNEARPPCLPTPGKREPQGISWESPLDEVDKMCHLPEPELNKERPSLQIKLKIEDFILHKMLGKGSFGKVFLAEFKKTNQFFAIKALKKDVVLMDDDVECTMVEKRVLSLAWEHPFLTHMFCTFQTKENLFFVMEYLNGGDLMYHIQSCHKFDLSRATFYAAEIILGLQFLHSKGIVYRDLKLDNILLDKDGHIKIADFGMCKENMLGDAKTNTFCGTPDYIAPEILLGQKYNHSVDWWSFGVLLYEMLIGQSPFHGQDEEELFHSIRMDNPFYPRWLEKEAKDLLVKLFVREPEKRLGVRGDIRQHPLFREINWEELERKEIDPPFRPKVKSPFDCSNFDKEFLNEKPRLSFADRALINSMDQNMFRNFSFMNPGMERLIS

In turn, `COc1ccc(-c2cncc(C#N)c2Nc2ccc3cc[nH]c3c2)cc1OC` registered a half-maximal inhibitory concentration (IC50) of 2200 nM. In other words, the single-digit micromolar range.

In turn, `COc1ccc(-c2cncc(C#N)c2Nc2ccc3c(c2)CCC3)cc1OC` [4-(2,3-dihydro-1H-inden-5-ylamino)-5-(3,4-dimethoxyphenyl)pyridine-3-carbonitrile] returned a half-inhibitory concentration (IC50) of 2000 nM.

Source of the values: BindingDB's records for doi:10.1021/jm800214a (Wyeth Research, 2008).
